Assay results published in patent US6362010B1, “Methods and compositions for release of CD3430 cells from affinity matrices” (priority 1995, dated 2002).
Where two headings read alike, the source gives them in different places.

What was measured:
mAb12.8 [1] = experiment: ELISA, binding of defucosylated SLe^x epitope to mAb12.8 with and without α1,3,4 fucosidase treatment; design: species or system mouse; details: 250 ng per well, FIG. 3; for binding to mAb12.8 after fucosidase treatment: 200 units per well α1,3,4 fucosidase, 37° C. overnight
Description: In a related experiment, the binding of a partially defucosylated SLe^X epitope (coupled to HSA) is evaluated using a similar ELISA. […] 100 μl of 2% BSA in Tris-Ca^++ buffer is added to each well to block further non-specific binding, and the plates are incubated at room temperature for 1 hour, followed by 2 washes with Tris-Ca^++ buffer. 200 units per well of α1,3,4 fucosidase (New England Biolabs, Beverly, Mass.) in citrate buffer (pH 4.0) is then added to half of the wells. The plates are covered and incubated at 37° C. overnight.
The plates are then washed three times with Tris-Ca^++ buffer and mAb12.8 (100 μl of 10 μg/mL mAb12.8 in Tris-Ca^++ buffer) is then added to each well except for 1 negative control for each condition. The plates are incubated at room temperature for 2 hours.
The plates are then washed 3 times with Tris-Ca^++ buffer, and 100 μl of 1 μg/mL peroxidase-labeled goat anti-mouse IgM (KPL, Inc., Gaithersburg, Md.) in 1% BSA Tris-Ca^++ buffer is added to each well. The plates are incubated at room temperature for 1 hour. The wells are then washed 5 times with Tris-Ca^++ buffer, and 100 μl of TMB substrate solution (KPL, Gaithersburg, Md.) is added to each well, and the reaction is allowed to proceed for 2 minutes. The reaction is stopped, and detection enhanced, by the addition of 100 μl of IM formic acid/well. The absorbance at 450 nm is then determined in a Titertek Multiskan MCC/340 plate reader (Flow Laboratories, Inc., McLean, Va.).

mAb12.8 [2] = format: binding; details: for binding to mAb12.8: ELISA of Example 2 part A / Example 3, FIG. 4, GM3 immobilized from methanol; for A450 (absorbance at 450 nm): 10 μg/mL mAb12.8
Description: Microtiter plates are prepared with serial dilutions of 3′SL-HSA (prepared as described in Example 1) in Tris-Ca^++ buffer (0.05M Tris HCl, pH 7.5, 0.15 M NaCl, 2 mM CaCl2), starting with 500 ng/well. The plates are incubated at 37° C. for 1 hour to immobilize the carbohydrate on the plastic well surface.
100 μl of 2% BSA in Tans-Cat^++ buffer is added to each well, and the plates are incubated at room temperature for 1 hour, and washed 3 times with Tris-Ca^++ buffer. 100 μl of 10 μg/mL mAb12.8 in 1% BSA Tris-Ca^++ buffer is then added to each well, and the plates are incubated at room temperature for 2 hours. Again, the plates are washed 3 times with Tris-Ca^++ buffer.
100 μl of 1 μg/mL peroxidase-labeled goat anti-mouse IgM (KPL, Inc., Gaithersburg, Md.) in 1% BSA Tris-Ca^++ buffer is added to each well, and the plates are incubated at room temperature for 1 hour, and washed 3 times with Tris-Ca^++ buffer. 100 μl of TMB (tetramethylbenzidine) substrate solution (KPL, Inc., Gaithersburg, Md.) is then added to each well, and the reaction is allowed to proceed for 2 minutes. The reaction is stopped, and detection enhanced, by the addition of 100 μl of 1M formic acid/well. The absorbance at 450 nm is then determined in a Titertek Multiskan MCC/340 plate reader (Flow Laboratories. Inc., McLean, Va.).
To illustrate the specificity of the interaction between 3′SL-HSA and mAb 12.8, and to further characterize the epitope of the antibody, the assay described in Example 2, part A, is performed using the control carbohydrates shown below:
The assays of each of the above HSA conjugates are performed as described for 3′SL-HSA. For GM3, the assay is as described above except that dilutions of GM3 are prepared in methanol, and immobilization on the plastic well surface is achieved by allowing the methanol to completely evaporate under an exhaust hood. After immobilization, 100 μl of 1% BSA in Tris-Ca^++ buffer is added to the wells containing GM3.

[3] = system: KG1A cells bound to mAb12.8; experiment: Parallel plate flow assay, inhibition of CD34+ (KG1A) cell binding to immobilized mAb12.8; format: cell-based; details: 200 ng carbohydrate per dish, 250 ng mAb12.8, wall shear stress 0.48 dynes/cm^2 for 2 minutes; FIG. 5
Description: This Example illustrates the use of a representative carbohydrate according to this invention to release KG1A cells (ATCC No. CCL246.1, Rockville, Md.) bound to mAb12.8.
Monoclonal antibody 12.8 is immobilized on 35 mm tissue culture dishes by adsorption, as shown below:
Each substrate is coated on the dish and incubated at 37° C. for 1 hour prior to adding the next substrate or running the flow assay. The flow assay utilizes a parallel plate flow chamber mounted on an inverted-stage microscope to visualize the adhesive interactions between cells and substrates. Each dish is attached to the flow chamber and mounted on the microscope stage.
To prevent binding of the cells to mAb12.8 by way of Fc receptors on the cell surface, human IgG ([…]) is added to the KG1A cells 10 minutes prior to the flow assay. In addition, 200 ng of 3′SL-HSA is added to dish 2, and 200 ng of 6′SL-HSA is added to dish 3, and flow is initiated such that the cells flow over the surface of the dish at a wall shear stress of 0.48 dynes/cm^2 for 2 minutes, prior to collecting images at 7 different locations on the dish. The images are then quantified, using video microscopy coupled to digital image processing, to determine the number of adherent cells in each image, and the number of cells in the 7 images are averaged.

mAb12.8 [4] = experiment: ELISA, effect of varying linker arm and carrier group on carbohydrate binding to mAb12.8; design: species or system mouse; details: 100 μl of carbohydrate at 0.5 μg/ml immobilized; 10 μg/ml mAb12.8; FIG. 2
Description: The effect of altering the chemical linker arm and carrier group on the 3′SL binding to mAb12.8 is evaluated using the following carbohydrates, prepared as described in example 1: 3′SL-APD-dendrimer. 3′SL-APD-BSA. 3′SL-APEA-BSA, 3′SL-APD-HSA and 6′SL-APD-HSA.
100 μl of each of the above carbohydrates is added to duplicate wells in a 96-well microtiter plate at 0.5 μg/ml. The plates are incubated overnight at 4° C. to immobilize the carbohydrates on the plastic well surface. The wells are then washed three times and filled with Tris-Cat^++ buffer (0.05 M Tris-HCl, pH 7.5, 0.15 M NaCl, 2 mM CaCl2) containing 1% BSA. The plates are then incubated for 1 hour at room temperature to block nonspecific binding.
The plates are washed three times with Tris-Ca^++ buffer and mAb 12.8 (100 μl of 10 μg/ml in Tris-Ca^++ buffer) is added to all wells except one negative control for each condition. The plates are incubated for an additional two hours at room temperature. […]
Wells are washed five times with Tris-Ca^++ buffer and 100 μl of tetramethylbenzidine solution (TMB substrate solution. KPL, Inc., Gaithersburg, Md.) is added. […] The microtiter plate is read in a Titertek Multiskan MCC/340 plate reader (Flow Laboratories, Inc., McLean, Va.) set at a wavelength of 450 nm.

Row | Substance | binding to mAb12.8 after fucosidase treatment (mAb12.8 [1]) | binding to mAb12.8 (mAb12.8 [2]) | further results
1 | Neu5Acα2-3Galβ1-4GlcNAcβ1-3Galβ1-4(Glc)-HSA | bind to mAb12.8 |  | 
2 | Neu5Acα2-3Galβ1-4(Glc)-APD-HSA [3′SL-HSA] | no detectable effect on binding | binds to mAb12.8 | A450 (absorbance at 450 nm) (mAb12.8 [2]; about 100 ng per well immobilized carbohydrate): greater than 1; A450 (absorbance at 450 nm) (mAb12.8 [2]; about 200 ng per well immobilized carbohydrate): ~3; A450 (absorbance at 450 nm) (mAb12.8 [2]; amounts less than about 70 ng/well immobilized carbohydrate): approximately 0.5; binding to mAb12.8 (mAb12.8 [1]; absence of fucosidase treatment): bind to mAb12.8; inhibition of binding of KG1A cells to mAb12.8 [3]: inhibits the binding of KG1A cells to mAb12.8
3 | Neu5Acα2-3Galβ1-4Glcβ1-1Ceramide [GM3, reference compound] |  | does not bind | 
4 | Neu5Acα2-6Galβ1-4(Glc)-APD-HSA [6′SL-HSA, reference compound] |  | does not bind | binding to mAb12.8 (mAb12.8 [4]): does not bind
5 | Neu5Acα2-3Galβ1-3GlcNAcβ1-3Galβ1-4(Glc)-APD-HSA [LSTa-HSA, reference compound] |  | does not bind | 
